From US7045516B1, “Benzoxazole derivatives and drugs containing the same as the active ingredient” (Koichi Shudo, priority 1998, dated 2006) come the findings set out here.

One data set has as its target T1, 5-HT3 receptor (Cavia porcellus, UniProt O70212).
T1 construct: From ileum of Hartley male guinea pigs (500 g to 800 g) longitudinal muscle samples of about 20 mm were prepared; from tissue; host or cells: guinea pig ileum longitudinal muscle
T1 sequence (O70212 20-490): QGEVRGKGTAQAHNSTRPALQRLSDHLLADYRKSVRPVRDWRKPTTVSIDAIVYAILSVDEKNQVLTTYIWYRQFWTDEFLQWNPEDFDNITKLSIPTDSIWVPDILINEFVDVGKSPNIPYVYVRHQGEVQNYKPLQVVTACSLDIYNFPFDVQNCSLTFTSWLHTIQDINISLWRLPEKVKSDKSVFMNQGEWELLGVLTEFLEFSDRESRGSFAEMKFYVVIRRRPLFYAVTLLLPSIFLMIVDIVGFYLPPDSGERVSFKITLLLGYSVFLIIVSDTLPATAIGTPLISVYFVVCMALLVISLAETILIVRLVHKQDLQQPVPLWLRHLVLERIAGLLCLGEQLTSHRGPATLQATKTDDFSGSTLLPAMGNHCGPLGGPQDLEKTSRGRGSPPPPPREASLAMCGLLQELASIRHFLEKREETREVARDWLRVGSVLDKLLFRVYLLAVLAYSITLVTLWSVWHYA
As to the kind of experiment: Test for 5-HT3 receptor activating action and antagonism, guinea pig ileum longitudinal muscle contraction. It counts as cell-based. To be noted: for EC50: negative logarithm of molar concentration giving 50% maximum contraction, read-out: Activating action pD2 (converted); for Activating action i.a.: ratio of maximum contraction by compound relative to maximum contraction with 10 μM 5-HT (defined as 1); for inhibition at 10 µM: inhibitory ratio of contraction by 10 μM 5-HT in sample treated beforehand with 10 μM compound, guinea pig ileum longitudinal muscle. On the procedure: From ileum of Hartley male guinea pigs (500 g to 800 g) longitudinal muscle samples of about 20 mm were prepared. The samples were suspended at a resting tension of about 0.5 g in Magnus tubes, and isometric contraction reaction was measured. The samples were treated beforehand twice with 0.3 μM of 5-HT for 1 hour to desensitize the 5-HT4 receptors, and then given with 5-HT at a concentration of 0.1 to 30 μM to examine dose-dependent contraction reaction via the 5-HT3 receptors. […] The index of the 5-HT3 receptor activating action, i.a., is represented as a ratio of the maximum reaction obtained by each compound relative to the maximum contraction reaction obtained with 10 μM of 5-HT, which is defined to be 1. The index of strength of binding with the 5-HT3 receptor, pD2, is represented with a negative logarithmic value of a concentration (molar concentration) that gave 50% maximum contraction reaction for each compound. As for the antagonistic activity of each compound against the 5-HT3 receptor, inhibitory ratio was calculated, which represents a ratio of contraction obtained by applying 10 μM of 5-HT to a sample treated beforehand with 10 μM of each compound relative to the contraction obtained by applying 10 μM of 5-HT to an untreated sample.

Data set [1] has as its system rat diarrhea under restriction stress. As to the kind of experiment: Inhibitory action for rat diarrhea under restriction stress. The format is in vivo. To be noted: oral, 30 min before restraint, male Wistar rats, 3 hours, nonlinear least square method. On the procedure: L. Williams et al. [GASTROENTEROLOGY, 94, 611–621 (1988)] was determined as follows, and the results were analyzed by the nonlinear least square method. 8-Week old male Wistar rats were starved from the evening of the day before the test. Each test compound was orally administered to the rats. After 30 minutes, the rats were constrained by binding of their fore-limbs and hind-limbs with wires. The rats were left in individual gages on white sheets under luminescent lamps for 3 hours. […] The test was performed with groups of rats each consisting of 8 rats.

For data set [2], the system named is large bowel transportation ability of normal mice. The experiment in a line: Effect on large bowel transportation ability of normal mice (glass bead excretion). The format is in vivo, mouse. To be noted: ddY male mice, bead inserted after 30 minutes. On the procedure:
G. et al. [Drug Dev. Res., 9, 241-247, (1986)] was determined as follows. Each test compound was orally administered to 5- to 7-week old ddY male mice starved for about 4 hours. […] After the insertion of the glass bead, time (second) from the insertion to excretion of the bead from the anus was measured, and the time was used as an index of large bowel transportation ability. The test was performed by using groups of mice each consisting of 9 to 11 mice, and all of the procedures were performed under no anesthesia.

Another data set in a line: Reverse mutation test. The protocol: A reverse mutagenicity test was performed using the compound of Example 1 (b) of the present specification, hydrochloride of 5,7-dimethyl-2-(1-piperazinyl)benzoxazole (C), hydrochloride of 5-chloro-7-methyl-2-(4-methyl-1-piperazinyl)benzoxazole (D), and hydrochloride of 5-chloro-7-methyl-2-(4-methyl-1-homopiperazinyl) benzoxazole (E) (compounds disclosed in Japanese Patent Publication (KOKAI) No. 10-29987/1998), and the compound described in Reference Example 4 of the present specification, i.e., hydrochloride of 5-chloro-7-methyl-2-(1-piperazinyl) benzoxazole (F) according to the method of T. Matsushima et al. (Noropoth K. H., Springer, Berlin-Heidelberg-New York, “Short-Term Test Systems For Detecting Carcinogens”, pp. 273–285, 1980) referred by the guideline 471 of ORGANIZATION FOR ECONOMIC CO-OPERATION AND DEVELOPMENT.

Molecules are shown by their SMILES. Read-outs that look alike come from different tables or passages of the source.

Turning to `c1ccc2oc(N3CCCNCC3)nc2c1` [A, 2-(1-homopiperazinyl)benzoxazole, reference compound], on 5-HT3 receptor, the EC50 is 1700 nM and the Activating action i.a. was found to be 0.32.
With `Cc1cc(C)c2oc(N3CCN(C)CC3)nc2c1` [B, 5,7-dimethyl-2-(4-methyl-1-piperazinyl) benzoxazole, reference compound], on 5-HT3 receptor, the EC50 is 479 nM and the Activating action i.a. amounted to 0.62.
With `Cc1cc(C)c2oc(N3CCNCC3)nc2c1` [C, 5,7-dimethyl-2-(1-piperazinyl)benzoxazole, reference compound], at 5-HT3 receptor, the inhibition at 10 µM stood at 91%, the EC50 was 70.8 nM and the Activating action i.a. was 0.12.
For `Cc1cc(Cl)cc2nc(N3CCN(C)CC3)oc12` [D, 5-chloro-7-methyl-2-(4-methyl-1-piperazinyl)benzoxazole, reference compound], at 5-HT3 receptor, the inhibition at 10 µM came out at 94%, the EC50 is 162 nM and the Activating action i.a. worked out at 0.27.
In the case of `Cc1cc(Cl)cc2nc(N3CCCN(C)CC3)oc12` [E, 5-chloro-7-methyl-2-(4-methyl-1-homopiperazinyl) benzoxazole, reference compound], at 5-HT3 receptor, the inhibition at 10 µM is 98%, the EC50 is 21.4 nM and the Activating action i.a. is 0.17.
For the molecule `Cc1cc(Cl)cc2nc(N3CCCNCC3)oc12` [Example 1 (a), 5-Chloro-2-(1-homopiperazinyl)-7-methylbenzoxazole], at 5-HT3 receptor, the inhibition at 10 µM is 95%, the EC50 is 33.1 nM and the Activating action i.a. was determined as 0.12.
Regarding `COc1cc(Cl)cc2nc(N3CCCNCC3)oc12` [Example 2, 5-Chloro-2-(1-homopiperazinyl)-7-methoxybenzoxazole], at 5-HT3 receptor, the inhibition at 10 µM worked out at 88%, the EC50 is 295 nM and the Activating action i.a. is 0.36.
Consider `Cc1cc2oc(N3CCCNCC3)nc2cc1Cl` [Example 3, 5-Chloro-2-(1-homopiperazinyl)-6-methylbenzoxazole], for which, at 5-HT3 receptor, the inhibition at 10 µM came out at 88%, the EC50 is 191 nM and the Activating action i.a. is on record as 0.08.
Turning to `CCc1cc(Cl)cc2nc(N3CCCNCC3)oc12` [Example 4, 5-Chloro-7-ethyl-2-(1-homopiperazinyl) benzoxazole], at 5-HT3 receptor, the inhibition at 10 µM worked out at 89% and the EC50 was 17.8 nM.
As for `CC(=O)Nc1cc(Cl)cc2nc(N3CCCNCC3)oc12` [Example 6, 7-Acetamino-5-chloro-2-(1-homopiperazinyl)benzoxazole], on 5-HT3 receptor, the inhibition at 10 µM stood at 90%, the EC50 is 3980 nM and the Activating action i.a. is on record as 0.35.
For `CC(C)(C)OC(=O)Nc1cc(Cl)cc2nc(N3CCCNCC3)oc12` [Example 7, 7-(tert-Butyloxycarbonylamino)-5-chloro-2-(1-homopiperazinyl)benzoxazole], at 5-HT3 receptor, the inhibition at 10 µM was found to be 83%, the EC50 is 2000 nM and the Activating action i.a. worked out at 0.31.
On to `Cl.Nc1cc(Cl)cc2nc(N3CCCNCC3)oc12` [Example 8, 7-Amino-5-chloro-2-(1-homopiperazinyl) benzoxazole hydrochloride], for which, on 5-HT3 receptor, the inhibition at 10 µM was 83%, the EC50 is 437 nM and the Activating action i.a. is recorded as 0.55.
Consider `Clc1cc(Cl)c2oc(N3CCCNCC3)nc2c1` [Example 9, 5,7-Dichloro-2-(1-homopiperazinyl) benzoxazole], for which, at 5-HT3 receptor, the inhibition at 10 µM is 97%, the EC50 is 56.2 nM and the Activating action i.a. stood at 0.13.
For `Cc1c(Cl)cc2nc(N3CCCNCC3)oc2c1Cl` [Example 10, 5,7-Dichloro-2-(1-homopiperazinyl)-6-methylbenzoxazole] the same measures were 96%, 56.2 nM and 0.09.
With `Cc1c(Cl)cc2nc(N3CCCNCC3)oc2c1C` [Example 11, 5-Chloro-2-(1-homopiperazinyl)-6,7-dimethylbenzoxazole], at 5-HT3 receptor, the inhibition at 10 µM was 89%, the EC50 was 35.5 nM and the Activating action i.a. amounted to 0.14.
The matching figures for `Clc1cc(NCc2ccccc2)c2oc(N3CCCNCC3)nc2c1` [Example 12, 7-(Benzylamino)-5-chloro-2-(1-homopiperazinyl) benzoxazole]: 88%, 191 nM and 0.05.
As for `CS(=O)(=O)Nc1cc(Cl)cc2nc(N3CCCNCC3)oc12.Cl` [Example 14, 5-Chloro-7-methanesulfonylamino-2-(1-homopiperazinyl) benzoxazole hydrochloride], on 5-HT3 receptor, the inhibition at 10 µM stood at 46%, the EC50 was 3390 nM and the Activating action i.a. stood at 0.13.
As to `CC(C)C(=O)Nc1cc(Cl)cc2nc(N3CCCNCC3)oc12.Cl` [Example 16, 5-Chloro-7-isobutyrylamino-2-(1-homopiperazinyl) benzoxazole hydrochloride], at 5-HT3 receptor, the inhibition at 10 µM came to 15%, the EC50 was 5620 nM and the Activating action i.a. turned out to be 0.10.
As to `Cc1cc(Cl)cc2nc(N3CCNCC3)oc12` [F, 5-chloro-7-methyl-2-(1-piperazinyl)benzoxazole, reference compound], on 5-HT3 receptor, the inhibition at 10 µM is 90%, the EC50 was 27.5 nM and the Activating action i.a. was determined as 0.14.
In turn, `CN1C2CCCC1CC(NC(=O)c1nn(C)c3ccccc13)C2` (stereo not shown) [G, Granisetron] registered an ED50 in data set [1] (Rattus norvegicus) of 0.025 mg/kg. The “time from insertion to excretion of glass bead” value in data set [2] (dose 3 mg/kg oral) was determined as 206.44 s; in data set [2] (dose 10 mg/kg oral), 258.47 s; in data set [2] (dose 30 mg/kg oral) it was 475.93 s.
`Cc1cc(Cl)cc2nc(N3CCCN(C)CC3)oc12.Cl` [Hydrochloride of E, hydrochloride of 5-chloro-7-methyl-2-(4-methyl-1-homopiperazinyl)benzoxazole]: the ED50 value in data set [1] turned out to be 0.0041 mg/kg. Also, the “time from insertion to excretion of glass bead” value in data set [2] (dose 3 mg/kg oral) was 271.91 s; in data set [2] (dose 10 mg/kg oral), 318.95 s; in data set [2] (dose 30 mg/kg oral) it was 248.56 s. The reverse mutagenicity result in “Reverse mutation test” is on record as “negative”.
Consider `Cc1cc(Cl)cc2nc(N3CCNCC3)oc12.Cl` [hydrochloride of Compound F, hydrochloride of 5-chloro-7-methyl-2-(1-piperazinyl) benzoxazole], for which, in the data set “Reverse mutation test” (method of Matsushima et al., OECD guideline 471), the reverse mutagenicity result is “positive”.

Broadly, the inhibition is the relative decrease from the control value, in per cent. A word on the ED50: it is the midpoint of the dose-response relation.
